Measurements reported in US20070154540A1 (KMSI CO., LTD., priority 2003, published 2007).

Experiments:
cancer cells = settings: background statement; cited from earlier work
[1] = tested on: osteoarthritis-induced New Zealand white rabbits; experiment: Proteoglycan levels in joint synovial fluids (1,9-dimethylmethylene blue assay); format: in vivo
Description: (§1) To prepare an osteoarthritis animal model, New Zealand white rabbits underwent anterior cruciate ligament transection (ACLT) in joints of their two hind legs. After three days, the rabbits were forced to sustain movement for four weeks in a space of 5×5 m^3 to induce substantial osteoarthritis. […] The following Examples 3 to 10 were all performed using joints of the osteoarthritis-induced New Zealand white rabbits prepared as in this Example 2.
In the joint synovial fluids prepared in Example 3, proteoglycan levels were measured using a 1,9-dimethylmethylene blue assay (Houselmann H. J. et al., Am. J. Physiol. 271:C742-752, (1996)). A synovial fluid sample of 50 μl was mixed with 250 μl of 1,9-dimethylmethylene blue (34,108-8, Aldrich), and absorbance was measured at 530 nm using a spectrophotometer (Power Wave X340, Bio-Tek).

IκBα = experiment: Western blotting of IκBα expression in LPS-treated RAW 264.7; format: cell-based, mice; settings: normal = 100%, LPS (two hours) 18.56%, 10 μM of apigenin
Description: (§2) A macrophage cell line derived from mice, RAW 264.7 (KCLB 40071), was purchased from the Korean Cell Line Bank. RAW 264.7 cells were seeded in a density of 3×10^6 cells onto 60-mm culture dishes containing DMEM (Dulbecco's Modified Eagle Medium, 12800-017, Gibco) supplemented with 10% FBS (fetal bovine serum, 26140-079, Gibco), 100 U/ml of penicillin and 100 μg/ml streptomycin (15140-122, Gibco), and cultured at 37° C. under 5% CO2 and humidity for 24 hrs. To induce NO production, RAW 264.7 cells were treated with 500 ng/ml of an E. coli cell wall component, lipopolysaccharide (LPS, […], Sigma). […] Herein, LPS was dissolved in distilled water, and apigenin was dissolved in DMSO. Then, the culture medium and a Griess reagent were mixed at a ratio of 1:1 (100 μl: 100 μl) and allowed to stand at room temperature for 10 min. Thereafter, absorbance was measured at 540 nm using a spectrophotometer (Power Wave X340, Bio-Tek). RAW 264.7 cells were treated under the same conditions as in Example 12. […] Herein, for IκBα expression, the cells were treated with LSP for only two hours. […] After protein concentrations in cell lysates were measured, […] protein samples were separated on an 8-16% SDS (sodium dodecyl sulfate) polyacrylamide gel (EC60452, NOVEX). […]

RAW 264.7 cells = experiment: LPS-induced NO production of macrophages (Griess); format: cell-based, mice; settings: 16 hrs, LPS alone 40, non-treated 2
Description: A macrophage cell line derived from mice, RAW 264.7 (KCLB 40071), was purchased from the Korean Cell Line Bank. RAW 264.7 cells were seeded in a density of 3×10^6 cells onto 60-mm culture dishes containing DMEM (Dulbecco's Modified Eagle Medium, 12800-017, Gibco) supplemented with 10% FBS (fetal bovine serum, 26140-079, Gibco), 100 U/ml of penicillin and 100 μg/ml streptomycin (15140-122, Gibco), and cultured at 37° C. under 5% CO2 and humidity for 24 hrs. To induce NO production, RAW 264.7 cells were treated with 500 ng/ml of an E. coli cell wall component, lipopolysaccharide (LPS, […], Sigma). […] Herein, LPS was dissolved in distilled water, and apigenin was dissolved in DMSO. Then, the culture medium and a Griess reagent were mixed at a ratio of 1:1 (100 μl: 100 μl) and allowed to stand at room temperature for 10 min. Thereafter, absorbance was measured at 540 nm using a spectrophotometer (Power Wave X340, Bio-Tek).

iNOS = experiment: Western blotting of iNOS expression in LPS-treated RAW 264.7; format: cell-based, mice; settings: LPS treatment = 100%, upon apigenin treatment
Description: as §2

[2] = tested on: osteoarthritis-induced New Zealand white rabbits; experiment: Distribution and number of synovial cells; format: in vivo
Description: as §1
Tissues were prepared according to the same method as in Example 9 and evaluated for cell number and the condition of their surfaces. Cell number was measured at a site 120 μm in depth.

O=c1cc(-c2ccc(O)cc2)oc2cc(O)cc(O)c12 [apigenin, 4′,5,7-trihydroxyflavone]
concentration at which apigenin acts effectively (anticancer activity) (cancer cells): lower than 50 μM
Proteoglycan levels in joint synovial fluids ([1]; apigenin-treated right leg (+), four weeks after drug injection): about 12.22 μg/ml
Proteoglycan levels in joint synovial fluids ([1]; apigenin-treated right leg (+), four weeks after drug injection, listed as Apigenin): 12.22 ± 0.4 µg/mL
Proteoglycan levels in joint synovial fluids ([1]; apigenin-treated right leg (+), two weeks after drug injection): 10.32 ± 0.66 µg/mL
Proteoglycan levels in joint synovial fluids ([1]; non-treated left leg (−) of apigenin treatment group, four weeks after drug injection): 34.09 ± 0.24 µg/mL
Proteoglycan levels in joint synovial fluids ([1]; non-treated left leg (−) of apigenin treatment group, two weeks after drug injection): 22.90 ± 0.86 µg/mL
IκBα expression level (IκBα): 75.82%
Nitrite (RAW 264.7 cells; LPS 500 ng/ml + apigenin 10 μM): 32.2 µM
Nitrite (RAW 264.7 cells; LPS 500 ng/ml + apigenin 20 μM): 22.2 µM
Nitrite (RAW 264.7 cells; LPS 500 ng/ml + apigenin 40 μM): 10.1 µM
Nitrite (RAW 264.7 cells; LPS 500 ng/ml + apigenin 80 μM): 9 µM
iNOS expression level (iNOS): 0%
decrease in synovial cell number compared to the control group ([2]; after osteoarthritis induction): about 34.5%
number of synovial cells ([2]; after osteoarthritis induction, measured at a site 120 μm in depth, control group 632.3): 406.6
surface of synovial membrane section ([2]; right leg, compared with control group treated with physiological saline): relatively smooth surface
